This is an account of results in ChEMBL document CHEMBL1144386, “Synthesis of O-galactosyl aldoximes as potent LacNAc-mimetic galectin-3 inhibitors” (Bioorg Med Chem Lett, 2005).

As a reminder, the Kd is the free concentration of one partner at which half of the binding sites on the other are occupied at equilibrium, for simple one-to-one binding. High values mean weaker binding, low ones tighter binding.

A value given as a limit tells only on which side of the number the result lay.

A short description of the experiment: Dissociation constant against galectin-3 using competitive fluorescence polarization.
As to `OC[C@H]1O[C@@H](O)[C@H](O)[C@@H](O)[C@H]1O` [b-D-GALACTOSE], the Kd was 4.4 mM. The figure for LACTOSE, ANHYDROUS is 0.22 mM; for `OCC1O[C@@H](O/N=C/c2cc(Br)ccc2O)C(O)[C@@H](O)C1O` (stereo partly specified) it is 1.65 mM. Under `OCC1O[C@@H](O/N=C/c2c[nH]c3ccccc23)C(O)[C@@H](O)C1O` (stereo partly specified) stands 0.33 mM; under `OCC1O[C@@H](O/N=C/c2ccco2)C(O)[C@@H](O)C1O` (stereo partly specified), 6.4 mM; under `OCC1O[C@@H](O/N=C/c2cccc(OC(F)(F)F)c2)C(O)[C@@H](O)C1O` (stereo partly specified), 2.2 mM. `COc1ccc(/C=N/O[C@@H]2OC(CO)C(O)[C@H](O)C2O)c(O)c1` (stereo partly specified) showed a Kd of 1.7 mM. In turn, `OCC1O[C@@H](O/N=C/c2ccc(Br)cc2)C(O)[C@@H](O)C1O` (stereo partly specified) had a dissociation constant Kd of 0.69 mM. The molecule `OCC1O[C@@H](O/N=C/c2cccc(F)c2)C(O)[C@@H](O)C1O` (stereo partly specified) registered a dissociation constant (Kd) of 1.6 mM.

In the case of `OC[C@H]1O[C@@H](O/N=C/c2c[nH]c3ccccc23)[C@H](O)[C@@H](O)[C@H]1O`, the Kd is 0.22 mM. As for `O=[N+]([O-])c1cccc(/C=N/O[C@@H]2OC(CO)C(O)[C@H](O)C2O)c1` (stereo partly specified), the affinity, expressed as Kd, was 0.53 mM. On to `OCC1O[C@@H](O/N=C/C2CCCCC2)C(O)[C@@H](O)C1O` (stereo partly specified), for which the Kd was found to be 4.8 mM. The figure for `OCC1O[C@@H](O/N=C/c2ccccc2OC(F)(F)F)C(O)[C@@H](O)C1O` (stereo partly specified) is 3.8 mM; for `O=[N+]([O-])c1ccccc1/C=N/O[C@@H]1OC(CO)C(O)[C@H](O)C1O` (stereo partly specified) it is 9.3 mM. Under `OCC1O[C@@H](O/N=C/c2ccc3ccccc3n2)C(O)[C@@H](O)C1O` (stereo partly specified) stands 1.4 mM; under `OCC1O[C@@H](O/N=C/CCc2ccccc2)C(O)[C@@H](O)C1O` (stereo partly specified), > 10 mM. The figure for `OCC1O[C@@H](O/N=C\C2C[C@H]3C=CC2C3)C(O)[C@@H](O)C1O` (stereo partly specified) is 4.8 mM; for `Cc1ccc(O)c(/C=N/O[C@@H]2OC(CO)C(O)[C@H](O)C2O)c1` (stereo partly specified) it is 2.6 mM; for `OCC1O[C@@H](O/N=C/C(c2ccccc2)c2ccccc2)C(O)[C@@H](O)C1O` (stereo partly specified) it is 7.2 mM.

As to `OCC1O[C@@H](O/N=C/c2ccoc2)C(O)[C@@H](O)C1O` (stereo partly specified), the Kd is > 10 mM.

`O=[N+]([O-])c1ccc(/C=N/O[C@@H]2OC(CO)C(O)[C@H](O)C2O)c([N+](=O)[O-])c1` (stereo partly specified) returned a Kd of 1.8 mM.

Consider `OCC1O[C@@H](O/N=C/c2ccc3ccccc3c2)C(O)[C@@H](O)C1O` (stereo partly specified), for which the affinity, expressed as Kd, was 2.3 mM. The figure for `CC(C)(C)c1ccc(/C=N/O[C@@H]2OC(CO)C(O)[C@H](O)C2O)cc1` (stereo partly specified) is 4.8 mM. Under `OCC1O[C@@H](O/N=C/c2ccc(O)cc2O)C(O)[C@@H](O)C1O` (stereo partly specified) stands 0.84 mM; under `O=[N+]([O-])c1ccc(/C=N/O[C@@H]2OC(CO)C(O)[C@H](O)C2O)o1` (stereo partly specified), 1.6 mM. The figure for `O=C[C@H](O)[C@@H](O)[C@@H](O)[C@H](O)CO` [GALACTOSE] is 4 mM; for `OCC1O[C@@H](O/N=C/c2cccc3ccccc23)C(O)[C@@H](O)C1O` (stereo partly specified) it is 0.37 mM. As to `C=NO[C@@H]1OC(CO)C(O)[C@H](O)C1O` (stereo partly specified), the Kd is 8.9 mM. As for `OCC1O[C@@H](O/N=C/c2ccccc2-c2ccccc2)C(O)[C@@H](O)C1O` (stereo partly specified), binding was put at a Kd of 2.9 mM. Under `OCC1O[C@@H](O/N=C/c2c3ccccc3cc3ccccc23)C(O)[C@@H](O)C1O` (stereo partly specified) stands 2.5 mM; under `OCC1O[C@@H](O/N=C/c2cccnc2)C(O)[C@@H](O)C1O` (stereo partly specified), 3.3 mM; under `OCC1O[C@@H](O/N=C/c2ccc(-c3ccccc3)cc2)C(O)[C@@H](O)C1O` (stereo partly specified), 6 mM. The figure for `C/C=N/O[C@@H]1OC(CO)C(O)[C@H](O)C1O` (stereo partly specified) is 5.7 mM. `COc1cccc(/C=N/O[C@@H]2OC(CO)C(O)[C@H](O)C2O)c1O` (stereo partly specified) had a dissociation constant (Kd) of 1.7 mM. The figure for `CCC(/C=N/O[C@@H]1OC(CO)C(O)[C@H](O)C1O)CC` (stereo partly specified) is 7.3 mM; for `CN(C)c1ccc(/C=N/O[C@@H]2OC(CO)C(O)[C@H](O)C2O)cc1` (stereo partly specified) it is 9 mM.

`OCC1O[C@@H](O/N=C/c2ccccc2O)C(O)[C@@H](O)C1O` (stereo partly specified) displayed a Kd of 1.8 mM. Under `OCC1O[C@@H](O/N=C/c2cccc(-c3ccccc3)c2)C(O)[C@@H](O)C1O` (stereo partly specified) stands 2.9 mM; under `Cc1ccccc1/C=N/O[C@@H]1O[C@@H](CO)[C@H](O)[C@H](O)[C@@H]1O`, 5.7 mM. In turn, `OCC1O[C@@H](O/N=C/c2cccc(O)c2)C(O)[C@@H](O)C1O` (stereo partly specified) returned an equilibrium dissociation constant (Kd) of 1.8 mM.

For the molecule `OCC1O[C@@H](O/N=C/CCl)C(O)[C@@H](O)C1O` (stereo partly specified), the Kd stood at 5.3 mM. Under `NO[C@@H]1OC(CO)C(O)[C@H](O)C1O` (stereo partly specified) stands 5.5 mM. Under `CC(=O)Nc1ccc(/C=N/O[C@@H]2OC(CO)C(O)[C@H](O)C2O)cc1` (stereo partly specified) stands 4.1 mM. The figure for `OCC1O[C@@H](O/N=C/c2ccccc2)C(O)[C@@H](O)C1O` (stereo partly specified) is 3.5 mM; for `O=[N+]([O-])c1ccc(/C=N/O[C@@H]2OC(CO)C(O)[C@H](O)C2O)cc1` (stereo partly specified) it is 2.2 mM; for `OCC1O[C@@H](O/N=C/c2ccc(O)cc2)C(O)[C@@H](O)C1O` (stereo partly specified) it is 4.8 mM.

As to `OCC1O[C@@H](O/N=C/c2ccc(F)cc2)C(O)[C@@H](O)C1O` (stereo partly specified), the dissociation constant Kd came out at 3.1 mM.

For `OCC1O[C@@H](O/N=C/c2ccccc2F)C(O)[C@@H](O)C1O` (stereo partly specified), the Kd was > 10 mM. `OCC1O[C@@H](O/N=C/Cc2ccccc2)C(O)[C@@H](O)C1O` (stereo partly specified): the Kd is > 10 mM.

With `OCC1O[C@@H](O/N=C/c2cc(O)ccc2O)C(O)[C@@H](O)C1O` (stereo partly specified), the affinity, expressed as Kd, was 0.78 mM. Under `OCC1O[C@@H](O/N=C/c2ccnc3ccccc23)C(O)[C@@H](O)C1O` (stereo partly specified) stands 0.62 mM; under `OCC1O[C@@H](O/N=C/c2ccncc2)C(O)[C@@H](O)C1O` (stereo partly specified), > 10 mM.

As to `CCn1c2ccccc2c2cc(/C=N/O[C@@H]3OC(CO)C(O)[C@H](O)C3O)ccc21` (stereo partly specified), the affinity, expressed as Kd, was 2.2 mM. The figure for `OCC1O[C@@H](O/N=C/c2ccc(O)c(O)c2)C(O)[C@@H](O)C1O` (stereo partly specified) is 0.55 mM; for `O=[N+]([O-])c1ccc(O)c(/C=N/O[C@@H]2OC(CO)C(O)[C@H](O)C2O)c1` (stereo partly specified) it is 0.36 mM.

Regarding `OCC1O[C@@H](O/N=C/c2ccc(OCc3ccccc3)cc2)C(O)[C@@H](O)C1O` (stereo partly specified), the Kd was > 10 mM.
